The values that follow come from ChEMBL document CHEMBL4265964, “Discover the leading compound of 4β-S-(5-fluorobenzoxazole)-4-deoxy-4'-demethylepipodophyllotoxin with millimolar-potency toxicity by modifying the molecule structure of 4'-demethylepipodophyllotoxin” (Eur J Med Chem, 2018).

In experiment [1] the test system is MRC5. The experiment is described as follows: Cytotoxicity against human MRC5 cells after 48 hrs by MTT assay. The following applies: MRC5, 48 h. It is filed as cell-based.
For experiment [2], the system named is MCF7. Nature of the experiment: Cytotoxicity against human MCF7 cells after 48 hrs by MTT assay. The settings on record: MCF7, 48 h. It is filed as functional, cell-based.
Experiment [3] concerns L02. Nature of the experiment: Cytotoxicity against human HL7702 cells after 48 hrs by MTT assay. It is filed as cell-based. The settings on record: L02, 48 h.
Experiment [4] deals with HMEC. The experiment is described as follows: Cytotoxicity against HMEC after 48 hrs by MTT assay. It is filed as cell-based. The following applies: Homo sapiens.
In experiment [5] the test system is HepG2. The experiment is described as follows: Cytotoxicity against human HepG2 cells after 48 hrs by MTT assay. Format: functional, cell-based. The settings on record: HepG2, 48 h. In general terms: Tetrazolium dyes change colour on reduction, which living cells bring about.
Experiment [6] has as its system A549. Nature of the experiment: Cytotoxicity against human A549 cells after 48 hrs by MTT assay. It is filed as functional, cell-based. The following applies: A549, 48 h.
Experiment [7] has as its system HeLa. Nature of the experiment: Cytotoxicity against human HeLa cells after 48 hrs by MTT assay. Format: functional, cell-based.
Experiment [8] in a line: Cytotoxicity against human H8 cells after 48 hrs by MTT assay. Format: cell-based.
The species entered for experiment [9] is Homo sapiens. Nature of the experiment: Inhibition of human topoisomerase-2 assessed as reduction in relaxation of kinetoplast DNA at 50 uM after 30 mins by ethidium bromide staining based agarose gel electrophoresis method.
The species named for experiment [10] is Homo sapiens. Nature of the experiment: Inhibition of human topoisomerase-2 assessed as reduction in relaxation of kinetoplast DNA at 200 uM after 30 mins by ethidium bromide staining based agarose gel electrophoresis method.
The species named for experiment [11] is Homo sapiens. The experiment is described as follows: Inhibition of human topoisomerase-2 assessed as reduction in relaxation of kinetoplast DNA at 100 uM after 30 mins by ethidium bromide staining based agarose gel electrophoresis method.

pIC50: −log10 of the molar value. Calls of active or inactive are those of the source. No cut-off for these calls is given here. Some results are limits rather than exact numbers.

Consider `COc1cc([C@@H]2c3cc4c(cc3[C@@H](O)[C@H]3COC(=O)[C@H]23)OCO4)cc(OC)c1O` [4'-DEMETHYLEPIPODOPHYLLOTOXIN], for which the pIC50 (usually −log10 of the IC50, conventionally taken in molar units) in [1] was 4.67; in experiment [2], 4.52; in experiment [3] it was 4.71; in [4], 4.71; in [5], 4.58; in experiment [6], 4.72. In addition, the pIC50 in experiment [7] is 4.56; in experiment [8], 4.60.

Regarding `COc1cc([C@@H]2c3cc4c(cc3[C@@H](c3nc5cc(C(F)(F)F)ccc5s3)[C@H]3COC(=O)[C@H]23)OCO4)cc(OC)c1O`, the pIC50 was 4.13 in experiment [1]; 4.46 in experiment [2]; 4.10 in experiment [3]; 4.37 in experiment [4]; 4.71 in [5]; 5.19 in [6]. Besides, the pIC50 is 4.68 in experiment [7] and 4.09 in experiment [8].

Regarding `COc1cc([C@@H]2c3cc4c(cc3[C@@H](c3nc5cc(-c6ccccc6)ccc5s3)[C@H]3COC(=O)[C@H]23)OCO4)cc(OC)c1O`, the pIC50 in [1] was 4.45; in experiment [2], under 4.00; in experiment [3] it was 4.73; in experiment [4], 4.27; in experiment [5], 4.82; in [6], 5.24. For the same compound, the pIC50 in [7] is 4.65; in [8], 4.32.

On to `COc1cc([C@@H]2c3cc4c(cc3[C@@H](C3CC(c5ccncc5)=CN3)[C@H]3COC(=O)[C@H]23)OCO4)cc(OC)c1O` (some centres undefined), for which the negative logarithm of the IC50 (pIC50) in experiment [1] is 4.72; in [2], 5.37; in [3] it was 4.64; in experiment [4], 4.42; in experiment [5] it was 5.00; in experiment [6], 5.70. Besides, the pIC50 in experiment [7] is 5.24; in [8] it was 4.63.

For `COc1cc([C@@H]2c3cc4c(cc3[C@@H](c3nc5ccccc5o3)[C@H]3COC(=O)[C@H]23)OCO4)cc(OC)c1O`, the pIC50 was 4.49 in experiment [1]; 4.67 in [2]; 4.75 in experiment [3]; 4.81 in [4]; 4.71 in experiment [5]; 4.59 in experiment [6]. In addition, the pIC50 is 4.79 in experiment [7] and 4.69 in experiment [8].

In the case of `COc1cc([C@@H]2c3cc4c(cc3[C@@H](c3nc5cc(C(F)(F)F)ccc5o3)[C@H]3COC(=O)[C@H]23)OCO4)cc(OC)c1O`, the pIC50 in experiment [1] was 4.13; in [2] it was 4.46; in experiment [3] it was 4.10; in experiment [4], 4.14; in experiment [5], 4.71; in [6], 5.19. For the same compound, the values for the pIC50 in experiment [7] and in experiment [8] were 4.68 and 4.09, respectively.

As to `COc1cc([C@@H]2c3cc4c(cc3[C@@H](c3nc5cc(C)ccc5o3)[C@H]3COC(=O)[C@H]23)OCO4)cc(OC)c1O`, the negative-log IC50 (pIC50) in experiment [1] is 4.41; in experiment [2] it was 4.84; in experiment [3] it was 4.50; in experiment [4], 4.90; in experiment [5] it was 4.81; in experiment [6] it was 5.10. Also, the pIC50 in experiment [7] was 4.81; in [8], 4.71.

For `COc1cc([C@@H]2c3cc4c(cc3[C@@H](c3nc5cc(OC(F)F)ccc5[nH]3)[C@H]3COC(=O)[C@H]23)OCO4)cc(OC)c1O`, the negative-log IC50 (pIC50) in experiment [1] is 4.22; in experiment [2] it was 5.62; in experiment [3] it was 4.81; in experiment [4] it was 4.29; in [5], 5.80; in experiment [6], 5.89. Besides, the pIC50 in [7] is 5.68; in experiment [8] it was 4.26.

Turning to `COc1cc([C@@H]2c3cc4c(cc3[C@@H](c3nc5cc(C)ccc5s3)[C@H]3COC(=O)[C@H]23)OCO4)cc(OC)c1O`, the pIC50 in experiment [1] is 4.33; in [2], 5.27; in experiment [3] it was 4.62; in experiment [4] it was 4.81; in experiment [5] it was 5.09; in [6] it was 5.52. Moreover, the values for the pIC50 in experiment [7] and in experiment [8] were 5.29 and 4.56, respectively.

For the compound `COc1cc([C@@H]2c3cc4c(cc3[C@@H](c3nc5c(F)c(F)c(F)c(F)c5s3)[C@H]3COC(=O)[C@H]23)OCO4)cc(OC)c1O`, the pIC50 in experiment [1] is 4.38; in experiment [2], 5.26; in [3], 4.45; in experiment [4], 4.74; in experiment [5] it was 4.84; in [6] it was 5.38. Moreover, the figures for the pIC50 in experiment [7] and in experiment [8] were 5.64 and 4.61, respectively.

For the compound `COc1cc([C@@H]2c3cc4c(cc3[C@@H](c3nc5cnc(F)cc5[nH]3)[C@H]3COC(=O)[C@H]23)OCO4)cc(OC)c1O`, the pIC50 in experiment [1] is 4.38; in experiment [2] it was 4.79; in [3] it was 4.53; in experiment [4], under 4.00; in experiment [5] it was 4.65; in experiment [6] it was 4.61. The pIC50 was 4.92 in experiment [7] and 4.47 in [8]. The inhibition result in experiment [9] and in [11] was “inactive” throughout. Also, the inhibition entry in experiment [10] is “Active”.

On to `COc1cc([C@@H]2c3cc4c(cc3[C@@H](c3nc5cnccc5[nH]3)[C@H]3COC(=O)[C@H]23)OCO4)cc(OC)c1O`, for which the pIC50 in experiment [1] is 4.20; in [2] it was under 4.00; in [3] it was 4.22; in [4] it was under 4.00; in [5], under 4.00; in experiment [6] it was under 4.00. Further, the pIC50 in experiment [7] and in [8] was under 4.00 in each case.

In the case of `COc1cc([C@@H]2c3cc4c(cc3[C@@H](C3CC(S)NN3c3ccccc3F)[C@H]3COC(=O)[C@H]23)OCO4)cc(OC)c1O` (some centres undefined), the pIC50 was 4.05 in experiment [1]; 5.82 in [2]; 4.14 in experiment [3]; 4.24 in [4]; 5.35 in experiment [5]; 5.55 in experiment [6]. For the same compound, the figures for the pIC50 in [7] and in [8] were 5.42 and 4.19, respectively.

Regarding `COc1cc([C@@H]2c3cc4c(cc3[C@@H](c3nc5c(F)c(F)c(F)c(F)c5o3)[C@H]3COC(=O)[C@H]23)OCO4)cc(OC)c1O`, the pIC50 was 4.18 in [1]; 5.46 in experiment [2]; 4.12 in [3]; 4.12 in [4]; 5.17 in experiment [5]; 5.77 in experiment [6]. Besides, the figures for the pIC50 in experiment [7] and in [8] were 5.37 and 4.35, respectively.

Regarding `COc1cc([C@@H]2c3cc4c(cc3[C@@H](c3nc5ccccc5s3)[C@H]3COC(=O)[C@H]23)OCO4)cc(OC)c1O`, the pIC50 in experiment [1] is 3.87; in [2], 4.94; in experiment [3], 4.64; in [4] it was 4.54; in experiment [5], 5.17; in experiment [6] it was 5.59. Moreover, the negative-log IC50 (pIC50) in [7] is 5.29; in [8], 4.71.

With `COc1cc([C@@H]2c3cc4c(cc3[C@@H](C3CC(c5ccncc5F)=CN3)[C@H]3COC(=O)[C@H]23)OCO4)cc(OC)c1O` (some centres undefined), the negative-log IC50 (pIC50) was 4.55 in [1]; 5.60 in experiment [2]; 4.70 in [3]; 4.50 in experiment [4]; 5.55 in [5]; 5.85 in experiment [6]. Besides, the values for the pIC50 in [7] and in experiment [8] were 5.72 and 4.72, respectively.

On to `COc1cc([C@@H]2c3cc4c(cc3[C@@H](c3nc5cc(-c6ccccc6)ccc5o3)[C@H]3COC(=O)[C@H]23)OCO4)cc(OC)c1O`, for which the pIC50 in experiment [1] was 4.12; in [2] it was under 4.00; in experiment [3], 4.66; in [4], 4.08; in [5] it was under 4.00; in experiment [6] it was under 4.00. Further, the pIC50 in experiment [7] and in [8] was under 4.00 in each case.
